For the assay, the system named is breast cancer cell lines (e.g. MDA-MB-231, SK-BR-3, MDA-MB-468, HCC1954). The assay can be described thus: Cell based assay, cell viability (CellTiter-Glo), breast cancer cell lines. The following applies: 72 hours, CellTiter-Glo. As for the experimental part:
Commercially available bladder cancer, prostate cancer, lung cancer, breast cancer, blood cancer, pancreatic cancer, colorectal cancer, brain cancer, neuroblastoma, melanoma, liver cancer, cervical carcinoma, ovarian cancer, renal cancer, and papilloma cell lines were each treated with trypsin-EDTA and cultured, followed by being seeded in each well of a 96 well plate. After 24 hours of treatment at constant temperature, the respective cells were treated with the candidate compound so that a final concentration became 0 to 2 μM. The treated cells were additionally cultured for 72 hours, and cell viability was measured by using an ATP detection method (CellTiter-Glo® Luminescent Cell Viability Assay, Promega).
(In ATP-based viability assays light output follows the ATP content of the culture.)

[1] abbreviates: Breast cancer cell line MDA-MB-231-L/DOX, read-out: IC50, MDA-MB-231-L/DOX.
[2] abbreviates: Homo sapiens, Breast cancer cell line BT-20, read-out: IC50, BT-20.
The mark [3] stands for this setting: Homo sapiens, Breast cancer cell line HCC1395, read-out: IC50, HCC1395.
Setting [4] is: Homo sapiens, Breast cancer cell line HCC1954, read-out: IC50, HCC1954.
[5] abbreviates: Homo sapiens, Breast cancer cell line JIMT-1, read-out: IC50, JIMT-1.
Setting [6] is: Homo sapiens, Breast cancer cell line MCF7, read-out: IC50, MCF7.
Setting [7] is: Homo sapiens, Breast cancer cell line MDA-MB-231, read-out: IC50, MDA-MB-231.
Where [8] appears, read: Homo sapiens, Breast cancer cell line MDA-MB-468, read-out: IC50, MDA-MB-468.
The mark [9] stands for this setting: Homo sapiens, Breast cancer cell line SK-BR-3, read-out: IC50, SK-BR-3.

This note sets out measurements from patent publication US11464770B2, “Anticancer pharmaceutical composition” (NATIONAL CANCER CENTER, priority 2016, dated 2022).

The structures appear in SMILES notation. pIC50: −log10 of the molar value. Read-outs that look alike come from different tables or passages of the source.

As to `CC(=O)c1c([S+](C)[O-])[nH]c2c(Br)ccc(Cl)c2c1=O` (centres unmarked) [Compound 1, 3-acetyl-8-bromo-5-chloro-2-(methylsulfinyl)quinolin-4(1H)-one], the pIC50 is below 5.70 under setting [1]; below 5.70 under setting [2]; below 5.00 under setting [3]; below 5.70 under setting [4]; below 5.00 under setting [5]; below 5.70 under setting [6]. The pIC50 under setting [7] is below 5.70, the pIC50 under setting [8] is below 5.70 and the pIC50 under setting [9] was 5.96.
On to `CSc1[nH]c2c(Br)ccc(Cl)c2c(=O)c1C(C)=O` [Compound 2, 3-acetyl-8-bromo-5-chloro-2-(methylthio)quinolin-4(1H)-one], for which the pIC50 runs as follows: under setting [1], below 5.70; under setting [2], below 5.70; under setting [3], below 5.00; under setting [4], below 5.70; under setting [5], below 5.00; under setting [6], below 5.70. For the same compound, the pIC50 is below 5.70 under setting [7], below 5.70 under setting [8] and below 5.70 under setting [9].
Regarding `CC(=O)c1c(SCc2ccccc2)[nH]c2c(Br)ccc(Cl)c2c1=O` [Compound 3, 3-acetyl-2-(benzylthio)-8-bromo-5-chloroquinolin-4(1H)-one], the pIC50 under setting [1] was below 5.70; the pIC50 under setting [2] is below 5.70; the pIC50 under setting [3] was below 5.00; the pIC50 under setting [4] was below 5.70; the pIC50 under setting [5] was below 5.00; the pIC50 under setting [6] was below 5.70. The pIC50 is below 5.70 under setting [7], below 5.70 under setting [8] and below 5.70 under setting [9].
Regarding `CC(=O)c1c([S+]([O-])Cc2ccccc2)nc2c(Br)ccc(Cl)c2c1O` (centres unmarked) [Compound 4], the pIC50 was below 5.70 under setting [2]; below 5.00 under setting [3]; below 5.70 under setting [4]; below 5.00 under setting [5]; below 5.70 under setting [6]; below 5.70 under setting [7]. The pIC50 is below 5.70 under setting [8] and 6.04 under setting [9].
In the case of `CSc1c(C(C)=O)c(=O)c2c(Cl)ccc(Br)c2n1C` [Compound 5, 3-acetyl-8-bromo-5-chloro-1-methyl-2-(methylthio)quinolin-4(1H)-one], the pIC50 under setting [1] was below 5.70; the pIC50 under setting [2] was below 5.70; the pIC50 under setting [3] is below 5.00; the pIC50 under setting [4] is below 5.70; the pIC50 under setting [5] is below 5.00; the pIC50 under setting [6] was below 5.70. Moreover, the pIC50 is, setting by setting: under setting [7], below 5.70; under setting [8], below 5.70; under setting [9], below 5.70.
As to `CC(=O)c1c([S+](C)[O-])[nH]c2c(Cl)ccc(Cl)c2c1=O` (centres unmarked) [Compound 6, 3-acetyl-5,8-dichloro-2-(methylsulfinyl)quinolin-4(1H)-one], the pIC50 is below 5.70 under setting [1]; below 5.70 under setting [2]; below 5.00 under setting [3]; below 5.70 under setting [4]; below 5.00 under setting [5]; below 5.70 under setting [6]. Also, the pIC50 by setting is: under setting [7], below 5.70; under setting [8], below 5.70; under setting [9], 5.95.
Consider `CSc1c(C(C)=O)c(=O)c2cc(F)ccc2n1C` [Compound 7, 3-acetyl-6-fluoro-1-methyl-2-(methylthio)quinolin-4(1H)-one], for which the pIC50 is, setting by setting: under setting [1], below 5.70; under setting [2], below 5.70; under setting [3], below 5.00; under setting [4], below 5.70; under setting [5], below 5.00; under setting [6], below 5.70. The pIC50 is below 5.70 under setting [7], below 5.70 under setting [8] and below 5.70 under setting [9].
Regarding `CSc1[nH]c2ccc(F)cc2c(=O)c1C(C)=O` [Compound 8, 1-(6-fluoro-4-hydroxy-2-(methylthio)quinolin-3-yl)ethan-1-one], the pIC50 is below 5.70 under setting [1]; below 5.70 under setting [2]; below 5.00 under setting [3]; below 5.70 under setting [4]; below 5.00 under setting [5]; below 5.70 under setting [6]. The pIC50 was below 5.70 under setting [7], below 5.70 under setting [8] and below 5.70 under setting [9].
`CC(=O)c1c([S+](C)[O-])n(C(=O)c2ccc(Br)cc2)c2c(Br)ccc(Cl)c2c1=O` (centres unmarked) [Compound 9, 3-acetyl-8-bromo-1-(4-bromobenzoyl)-5-chloro-2-(methylsulfinyl)quinolin-4(1H)-one]: the pIC50 under setting [1] is below 5.70; the pIC50 under setting [2] was below 5.70; the pIC50 under setting [3] was below 5.00; the pIC50 under setting [4] was below 5.70; the pIC50 under setting [5] was below 5.00; the pIC50 under setting [6] was below 5.70. For the same compound, the pIC50 runs as follows: under setting [7], below 5.70; under setting [8], below 5.70; under setting [9], 6.07.
For `CC(=O)c1c(SCc2ccc(Cl)cc2)[nH]c2c(Br)ccc(Cl)c2c1=O` [Compound 10, 3-acetyl-8-bromo-5-chloro-2-((4-chlorobenzyl)thio)quinolin-4(1H)-one], the pIC50 is, setting by setting: under setting [1], below 5.70; under setting [2], below 5.70; under setting [3], below 5.00; under setting [4], below 5.70; under setting [5], below 5.00; under setting [6], below 5.70. The pIC50 is, setting by setting: under setting [7], below 5.70; under setting [8], below 5.70; under setting [9], below 5.70.
For `CC(=O)c1c([S+]([O-])Cc2ccc(Cl)cc2)[nH]c2c(Br)ccc(Cl)c2c1=O` (centres unmarked) [Compound 11, 3-acetyl-8-bromo-5-chloro-2-((4-chlorobenzyl)sulfinyl)quinolin-4(1H)-one], the pIC50 reads like this: under setting [1], below 5.70; under setting [2], below 5.70; under setting [3], below 5.00; under setting [4], below 5.70; under setting [5], below 5.00; under setting [6], below 5.70. The pIC50 runs as follows: under setting [7], below 5.70; under setting [8], below 5.70; under setting [9], below 5.70.
For the compound `CC(=O)c1c(Sc2ccccc2)[nH]c2c(Br)ccc(Cl)c2c1=O` [Compound 12, 3-acetyl-8-bromo-5-chloro-2-(phenylthio)quinolin-4(1H)-one], the pIC50 runs as follows: under setting [1], below 5.70; under setting [2], below 5.70; under setting [3], below 5.00; under setting [4], below 5.70; under setting [5], below 5.00; under setting [6], below 5.70. The pIC50 under setting [7] was below 5.70, the pIC50 under setting [8] was below 5.70 and the pIC50 under setting [9] was below 5.70.
Consider `CC(=O)c1c([S+]([O-])c2ccccc2)[nH]c2c(Br)ccc(Cl)c2c1=O` (centres unmarked) [Compound 13, 3-acetyl-8-bromo-5-chloro-2-(phenylsulfinyl)quinolin-4(1H)-one], for which the pIC50 reads like this: under setting [1], below 5.70; under setting [2], below 5.70; under setting [3], below 5.00; under setting [4], below 5.70; under setting [5], below 5.00; under setting [6], below 5.70. Also, the pIC50 is below 5.70 under setting [7], below 5.70 under setting [8] and below 5.70 under setting [9].
In the case of `COc1ccccc1Sc1[nH]c2c(Br)ccc(Cl)c2c(=O)c1C(C)=O` [Compound 14, 3-acetyl-8-bromo-5-chloro-2-((2-methoxyphenyl)thio)quinolin-4(1H)-one], the pIC50 reads like this: under setting [1], below 5.70; under setting [2], below 5.70; under setting [3], below 5.00; under setting [4], below 5.70; under setting [5], below 5.00; under setting [6], below 5.70. In addition, the pIC50 is, setting by setting: under setting [7], below 5.70; under setting [8], below 5.70; under setting [9], below 5.70.
`COc1ccccc1[S+]([O-])c1[nH]c2c(Br)ccc(Cl)c2c(=O)c1C(C)=O` (centres unmarked) [Compound 15, 3-acetyl-8-bromo-5-chloro-2-((2-methoxyphenyl)sulfinyl)quinolin-4(1H)-one]: the pIC50 is below 5.70 under setting [1]; below 5.70 under setting [2]; below 5.00 under setting [3]; below 5.70 under setting [4]; below 5.00 under setting [5]; below 5.70 under setting [6]. Also, the pIC50 was below 5.70 under setting [7], below 5.70 under setting [8] and 5.77 under setting [9].
With `CC(=O)c1c(Sc2ccc(Br)cc2)[nH]c2c(Br)ccc(Cl)c2c1=O` [Compound 16, 3-acetyl-8-bromo-2-((4-bromophenyl)thio)-5-chloroquinolin-4(1H)-one], the pIC50 runs as follows: under setting [1], below 5.70; under setting [2], below 5.70; under setting [3], below 5.00; under setting [4], below 5.70; under setting [5], below 5.00; under setting [6], below 5.70. Also, the pIC50 is, setting by setting: under setting [7], below 5.70; under setting [8], below 5.70; under setting [9], below 5.70.
